Tests used:
rats [1] = test: cardiovascular and respiratory parameters after application to the buccal cavity of anaesthetised rats; assay type: in vivo, rat
Source text: (§1) In separate experiments, the effects of bethanechol (saturated solution, see above) were compared with those of physostigmine (1% solution in saline) on cardiovascular and respiratory parameters when applied to the buccal cavity of rats. Anaesthesia was induced in animals with urethane (1.75 g/kg given i.p.). Each animal was artificially ventilated via a tracheal cannula that was connected to a Fleisch (size 00) pneumotachograph and a pressure transducer (pressure range ±2 cm H2O). […] The left carotid artery was cannulated for recording blood pressure and heart rate, and the left jugular vein cannulated for drug administration. For topical administration, after 15-30 minutes a Parafilm ball was inserted into the back of the oral cavity to prevent the loss of solution into the oesophagus and airways. At T−10 minutes a cotton wool ball was inserted into the oral cavity and 10 minutes later it was removed and excess saliva wiped away. At T=O minutes physostigmine (1%, 10 microliters each on left and right sides) or bethanechol (10 microliters each on left and right sides) were instilled using a pipette. At T=10 minutes, another cotton wool ball was inserted into the oral cavity, 10 min later, it was removed and the excess saliva wiped away. The effects on baseline cardiovascular and respiratory parameters were recorded over 90 minutes. Physostigmine produced changes in all measured parameters, the mean maximum effects seen during the observation period were for pulmonary inflation pressure 44% increase, mean arterial pressure 17% decrease and heart rate 9.3% decrease (all n=2). In contrast, bethanechol produced minimal (and not significant) effects on any of these parameters, the mean maximum changes being 0% change, 3% decrease and 1% decrease for pulmonary inflation pressure, mean arterial pressure and heart rate respectively (n=3).

patients with xerostomia = test: clinical study in patients with xerostomia, buccal solution versus placebo; assay type: in vivo, human; settings: approximately 0.5 ml solution retained against the buccal mucosa for 1 to 2 minutes and then swallowed, crossover versus placebo
Protocol: A cohort of approximately 20 patients with xerostomia is randomised to receive either placebo or bethanechol formulation or vice versa with at least 3 days washout between the treatment segments. Each treatment is given as a small volume (approximately 0.5 ml) solution to be retained against the buccal mucosa for 1 to 2 minutes and then swallowed. Clinical investigations include vital signs, haematology/chemistry and appearance of the buccal mucosa. Efficacy measurements include salivary flow and composition of major and minor glands using standard techniques (see e.g. Ferguson 1999, Archives of Oral Biol., 44:S11-S14; Boros et al., Archives of Oral Biol., 44:S59-S62) and the assessment of subjective oral dryness/comfort using validated measures (see e.g. Chainani-Wu et al., 2006, Spec. Care Dentist 26(4):164-170).

male Sprague-Dawley rats = test: efficacy study: saliva production after topical instillation into the oral cavity of anaesthetised rats; assay type: in vivo, rat; settings: saturated solution
Protocol: In the experiments outlined below, bethanechol chloride for buccal administration was prepared as a saturated solution in a solvent mixture comprising PEG 400, glycerol, ethanol and sodium phosphate buffer. Specific solvent amounts were 30% PEG 400, 30% glycerol, 20% ethanol with 20% phosphate buffer (formed by mixing 50 ml of 0.1M sodium phosphate monobasic (monohydrate) with sufficient 0.1M sodium phosphate dibasic (heptahydrate) until a pH of 5.5 was achieved). Bethanechol chloride was present at up to 33%.
In order to prepare a saturated solution of bethanechol chloride the following method was used. A magnetic flea was placed into a 20 ml scintillation vial and the weight of both was recorded. Exactly 0.8 g of the pH 5.5 buffer solution was placed into the container. […] Once the saturated solution (containing un-dissolved bethanechol) had been achieved, the vial was placed onto a balance and the total weight recorded. […] The amounts of ethanol, glycerol and PEG 400 were calculated to make a solution containing 30% PEG 400, 30% glycerol, 20% ethanol and 20% buffer and bethanechol. […]
Saliva production data were analysed by repeated measures two-way ANOVA followed by Bonferronis post tests (GraphPad Prism version 5.0, GraphPad Software, San Diego, Calif., USA). […]

rats [2] = test: cardiovascular and respiratory effects after intravenous administration in rats; assay type: in vivo, rat; settings: n=3
Source text: as §1
For an additional comparison, the effects of bethanechol (prepared in saline, dosing volume 0.1 ml) over a dose range of 0.3 micrograms/kg to 300 micrograms/kg administered intravenously were studied in rats. Doses were administered in ascending order to each animal (n=3) and cardiovascular and respiratory effects monitored over 5 minutes or until the recorded parameter had returned to baseline (whichever was the later). […] The effects observed with bethanechol at 300 micrograms/kg were mean arterial pressure 72% decrease, heart rate 69% decrease and pulmonary inflation pressure 30% increase.

[3] = buccal, 10 microliters each on left and right sides, recorded over 90 minutes, physostigmine 1% (n=2), bethanechol saturated solution (n=3)

| Structure (SMILES) | heart rate, mean maximum effect (decrease) (rats [1]; rat, in vivo) [%] | mean arterial pressure, mean maximum effect (decrease) (rats [1]; rat, in vivo) [%] | pulmonary inflation pressure, mean maximum effect (increase) (rats [1]; rat, in vivo) [%] | salivary flows (patients with xerostomia) | subjective oral dryness/comfort scores (patients with xerostomia) | salivary output (male Sprague-Dawley rats; applied topically, for up to 70 minutes) | increase of total saliva production above vehicle effect (male Sprague-Dawley rats; 10 microliters on each side of the mouth, 70 minute collection period, P less than 0.01, n=4) [%] | heart rate decrease (rats [2]; 0.3 micrograms/kg, in saline) [%] | mean arterial pressure decrease (rats [2]; 0.3 micrograms/kg, in saline) [%] | heart rate decrease (rats [2]; 300 micrograms/kg, in saline) [%] | mean arterial pressure decrease (rats [2]; 300 micrograms/kg, in saline) [%] | pulmonary inflation pressure increase (rats [2]; 300 micrograms/kg, in saline) [%] | dose at which increases in pulmonary inflation pressure were seen (rats [2]; ascending doses 0.3 to 300 micrograms/kg) [micrograms/kg] | heart rate, mean maximum effect (decrease) (rats [1]; [3]) [%] | mean arterial pressure, mean maximum effect (decrease) (rats [1]; [3]) [%] | pulmonary inflation pressure, mean maximum effect (increase) (rats [1]; [3]) [%] |
| --- | --- | --- | --- | --- | --- | --- | --- | --- | --- | --- | --- | --- | --- | --- | --- | --- |
| CC(C[N+](C)(C)C)OC(N)=O (stereo not shown) [bethanechol, Bethanechol chloride] | 1 | 3 | 0 | increase salivary flows | improve subjective oral dryness/comfort scores | sustained and significant increase | 72 | 6 | 31 | 69 | 72 | 30 | ≥ 3 |  |  |  |
| CNC(=O)Oc1ccc2c(c1)[C@]1(C)CCN(C)[C@@H]1N2C [physostigmine] |  |  |  |  |  |  |  |  |  |  |  |  |  | 9.3 | 17 | 44 |
